This assay concerns the target T1, Prostaglandin E synthase (Homo sapiens, UniProt O14684).
T1 sequence (O14684 whole entry): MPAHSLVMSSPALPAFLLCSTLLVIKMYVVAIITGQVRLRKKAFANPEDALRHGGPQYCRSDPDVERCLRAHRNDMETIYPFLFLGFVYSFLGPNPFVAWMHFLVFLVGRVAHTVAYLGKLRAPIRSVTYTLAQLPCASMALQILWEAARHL
Nature of the assay: mPGES1 enzyme assay. The procedure:
mPGES1 was diluted with assay buffer and added into plate at 49 μL/well supplemented with 1 μL of compound (the final concentration of each compound at seven gradient concentrations was 10000 nM, 1000 nM, 100 nM, 10 nM, 1 nM, 0.1 nM and 0.01 nM). […] Then, each well was added with 53.8 μL of 6 mg/mL SnCl2 to quench the reaction. The sample was diluted with dilute buffer at 1:400. 10 μl of diluted sample, 5 μL PGE2-d2 and 5 μL anti-PGE2 Cryptate were added to a black 384-well plate, and incubated at 4° C. overnight. HTRF was determined using Flexstation, and the IC50 of the compounds was obtained by data processing software.

From BindingDB's records for patent US10081629 (Jiangsu Hengrui Medicine, 2018) come the findings set out here.

Turning to `COCCn1c(C2=CC=C(C(F)(F)F)CC2)cc2cc(NC(=O)c3cc(CNC(=O)C(C)(C)F)cnc3C(F)F)ccc21` [US10081629, Example 27], the IC50 (usually the midpoint of a concentration-inhibition curve) worked out at 13.4 nM.
